Results on 23 compounds are retold here after US20250092065A1, “2-(INDAZOL-5-YL)-6-(PIPERIDIN-4-YL)-1,7-NAPHTHYRIDINE DERIVATIVES AND RELATED COMPOUNDS AS MODULATORS FOR SPLICING NUCLEIC ACIDS AND FOR THE TREATMENT OF PROLIFERATIVE DISEASES” (REMIX THERAPEUTICS INC., priority 2022, published 2025).

The structures appear in SMILES notation. Read-outs that look alike come from different tables or passages of the source.

Holding throughout (assay type): cell-based, human
For one test, the system named is MYB mRNA. Description: RT-qPCR splicing assay, MYB mRNA canonical (CJ) and alternative (AJ) junction. As to conditions: Homo sapiens; for AC50: MYB alternative junction mRNA, read-out: MYB AJ (increase in AJ mRNA, AC50). Summed up:
(§1)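 Splice switching quantified in compound-treated A673/K562 cells after 24 h exposure (top dose 10 uM, 3-fold steps, ≤0.25% DMSO), using CJ and AJ qPCR assays run at least in duplicate. RQ derived by 2^(−ΔΔCt), then percentage response.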
A general note: In qPCR the cycle at which signal appears reflects the starting amount.

The next test concerns SMN2 mRNA. In words: RT-qPCR splicing assay, SMN2 mRNA. As to conditions: Homo sapiens, canonical junction qPCR panel, Table 4; read-out: SMN2 IC50 (decrease in CJ mRNA levels). Summed up:
as §1

The test system of another test is MYB. Description: HiBiT protein abundance assay, MYB (K562 HiBiT knock-in). The settings on record: HiBiT knock-in K562 cells, 24 hours, top dose 10 μM. The method, boiled down: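 Endogenously HiBiT-tagged K562 lines were treated for 24 h at 37 °C with 10-point 3-fold dilutions (top 10 μM final, DMSO ≤0.25%). Lytic LgBiT complementation luminescence was normalized between unmodified K562 (PC) and DMSO-treated tagged cells (NC); IC50 was interpolated at 50% from a four-parameter logistic fit.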
In general terms: With HiBiT, luminescence reflects the tagged protein that the partner subunit can reach.

The subject of another test is Target C. Description: HiBiT protein abundance assay, Target C (K562 HiBiT knock-in). As to conditions: HiBiT knock-in K562 cells, 24 hours, top dose 10 μM. The method, boiled down: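 K562 HiBiT knock-in cells (10000/well) were treated 24 h at 37° C with a 10-point 3-fold dilution series (top 10 μM final, ≤0.25% DMSO). HiBiT luminescence was read after lytic LgBiT detection. Percent response used unmodified K562 and DMSO-treated knock-in controls, and IC50 came from a four-parameter fit at 50% of untreated.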

[1] abbreviates: MYB canonical junction mRNA, RT-qPCR, read-out: MYB CJ (decrease in CJ mRNA levels, IC50).
The mark [2] stands for this setting: canonical junction qPCR panel, Table 4, read-out: MYB IC50 (decrease in CJ mRNA levels).

As a reminder, the AC50 is the concentration at which the activity in the assay is half-maximal. The IC50 is the point on the concentration scale where inhibition reaches its midpoint. In the case of `Cn1cc2cc(-c3ccc4nc(N5CC[C@H](NC6CCC6)C5)ccc4n3)c(O)c(F)c2n1` (single isomer, unassigned) [Compound 317], the AC50 with MYB mRNA (RT-qPCR) is under 100 nM. The IC50 with MYB mRNA (setting [1]), with MYB mRNA (setting [2]), in the test with SMN2 mRNA, in the test with MYB and with Target C was under 100 nM throughout.
As to `Cc1c(O)c(-c2ccc3nc(N4CC[C@@H](NC(C)C)C4)ccc3n2)cc2cn(C)nc12` (single isomer, unassigned) [Compound 319], in the test on MYB mRNA (RT-qPCR), the AC50 was under 100 nM. For the same compound, the IC50 in the test on MYB mRNA (setting [1]), in the test on MYB mRNA (setting [2]), in the test with SMN2 mRNA, with MYB and in the test on Target C was under 100 nM throughout.
For `Cc1c(O)c(-c2ccc3nc(N4CC[C@H](NCC5CC5)C4)ccc3n2)cc2cn(C)nc12` (single isomer, unassigned) [Compound 321], the AC50 in the test with MYB mRNA (RT-qPCR) is under 100 nM. Further, the IC50 with MYB mRNA (setting [1]), in the test with MYB mRNA (setting [2]), with SMN2 mRNA, in the test with MYB and in the test on Target C was under 100 nM each time.
`Cc1c(O)c(-c2ccc3nc(N4CC[C@@H](NCC5CC5)C4)ccc3n2)cc2cn(C)nc12` (single isomer, unassigned) [Compound 322]: the AC50 with MYB mRNA (RT-qPCR) was under 100 nM. The IC50 in the test on MYB mRNA (setting [1]), with MYB mRNA (setting [2]), in the test on SMN2 mRNA, in the test on MYB and in the test with Target C was under 100 nM in each case.
With `Cc1nc2c(F)c(O)c(-c3ccc4nc(N5CC[C@@H](NCC6CC6)C5)ccc4n3)cc2o1` (single isomer, unassigned) [Compound 323], the AC50 in the test on MYB mRNA (RT-qPCR) was under 100 nM. For the same compound, the IC50 in the test with MYB mRNA (setting [1]), with MYB mRNA (setting [2]), in the test on SMN2 mRNA, in the test with MYB and in the test with Target C was under 100 nM each time.
Regarding `Cc1nc2c(F)c(O)c(-c3ccc4nc(N5CC[C@H](NCC6CC6)C5)ccc4n3)cc2o1` (single isomer, unassigned) [Compound 324], in the test on MYB mRNA (RT-qPCR), the AC50 is under 100 nM. In addition, the IC50 in the test with MYB mRNA (setting [1]), in the test with MYB mRNA (setting [2]), in the test on SMN2 mRNA, in the test on MYB and in the test with Target C was under 100 nM throughout.
Consider `Cc1nc2c(F)c(O)c(-c3ccc4nc(N5CC[C@@H](NC(C)C)C5)ccc4n3)cc2o1` (single isomer, unassigned) [Compound 329], for which the AC50 in the test on MYB mRNA (RT-qPCR) is under 100 nM. Moreover, the IC50 with MYB mRNA (setting [1]), in the test on MYB mRNA (setting [2]), with SMN2 mRNA, in the test on MYB and in the test on Target C was under 100 nM each time.
Take `Cc1nc2c(F)c(O)c(-c3ccc4nc(N5CC[C@H](NC(C)C)C5)ccc4n3)cc2o1` (single isomer, unassigned) [Compound 330]: the AC50 with MYB mRNA (RT-qPCR) is under 100 nM. For the same compound, the IC50 with MYB mRNA (setting [1]), with MYB mRNA (setting [2]), in the test on SMN2 mRNA, with MYB and in the test with Target C was under 100 nM each time.
Consider `Cn1cc2cc(-c3ccc4nc(N5CC[C@H](N[C@H]6C[C@H](F)C6)C5)ccc4n3)c(O)c(F)c2n1` (single isomer, unassigned) [Compound 347], for which the AC50 in the test with MYB mRNA (RT-qPCR) is under 100 nM. Also, the IC50 in the test on MYB mRNA (setting [1]), in the test with MYB mRNA (setting [2]), in the test with SMN2 mRNA, in the test on MYB and with Target C was under 100 nM each time.
With `Cc1nc2cc(O)c(-c3ccc4nc(N5CC[C@@H](N[C@H]6C[C@H](F)C6)C5)ccc4n3)cc2o1` (single isomer, unassigned) [Compound 348], the AC50 in the test on MYB mRNA (RT-qPCR) was under 100 nM. Further, the IC50 is under 100 nM in the test on MYB mRNA (setting [1]); under 100 nM with MYB mRNA (setting [2]); under 100 nM in the test with SMN2 mRNA; under 100 nM in the test on MYB; 100 to 1000 nM with Target C.
In the case of `Cn1cc2cc(-c3ccc4nc(N5CC[C@@H](N[C@H]6C[C@H](F)C6)C5)ccc4n3)c(O)c(F)c2n1` (single isomer, unassigned) [Compound 349], in the test on MYB mRNA (RT-qPCR), the AC50 was under 100 nM. In addition, the half-inhibitory concentration (IC50) in the test with MYB mRNA (setting [1]), with MYB mRNA (setting [2]), with SMN2 mRNA, in the test on MYB and with Target C was under 100 nM in each case.
On to `Cc1nc2c(C)c(O)c(-c3ccc4nc(N5CC[C@H](N[C@H]6C[C@H](F)C6)C5)ccc4n3)cc2o1` (single isomer, unassigned) [Compound 351], for which the AC50 in the test with MYB mRNA (RT-qPCR) was under 100 nM. In addition, the IC50 in the test on MYB mRNA (setting [1]), with MYB mRNA (setting [2]), in the test with SMN2 mRNA, in the test with MYB and in the test on Target C was under 100 nM throughout.
`Cc1nc2c(C)c(O)c(-c3ccc4nc(N5CC[C@@H](N[C@H]6C[C@H](F)C6)C5)ccc4n3)cc2o1` (single isomer, unassigned) [Compound 352]: the AC50 in the test with MYB mRNA (RT-qPCR) was under 100 nM. For the same compound, the IC50 in the test on MYB mRNA (setting [1]), with MYB mRNA (setting [2]), in the test on SMN2 mRNA, with MYB and with Target C was under 100 nM throughout.
As for `Cc1nc2c(F)c(O)c(-c3ccc4nc(N5CC[C@@H](NC6(C)CC6)C5)ccc4n3)cc2o1` (stereo in doubt) [Compound 326, 4-fluoro-2-methyl-6-{6-[(3 S)-3-[(1-methylcyclopropyl)amino]pyrrolidin-1-yl]-1,5-naphthyridin-2-yl}-1,3-benzoxazol-5-ol], in the test with MYB mRNA (RT-qPCR), the AC50 is under 100 nM. The IC50 with MYB mRNA (setting [1]), in the test on MYB mRNA (setting [2]), with SMN2 mRNA, in the test on MYB and in the test with Target C was under 100 nM in each case.
As to `Cc1nc2c(F)c(O)c(-c3ccc4nc(N5CCC(NC6(C)CC6)C5)ccc4n3)cc2o1` (stereo in doubt) [Compound 327, 4-fluoro-2-methyl-6-{6-[(3R)-3-[(1-methylcyclopropyl)amino]pyrrolidin-1-yl]-1,5-naphthyridin-2-yl}-1,3-benzoxazol-5-ol], the AC50 in the test on MYB mRNA (RT-qPCR) was under 100 nM. The IC50 with MYB mRNA (setting [1]), in the test with MYB mRNA (setting [2]), in the test on SMN2 mRNA, in the test on MYB and with Target C was under 100 nM throughout.
As for `Cc1nc2c(C)c(O)c(-c3ccc4nc(N5CC[C@H](NC(C)(C)C)C5)ccc4n3)cc2o1` [Compound 214], the AC50 in the test on MYB mRNA (RT-qPCR) is 100 to 1000 nM. For the same compound, the IC50 was 100 to 1000 nM in the test on MYB mRNA (setting [1]); 100 to 1000 nM in the test with MYB mRNA (setting [2]); under 100 nM with SMN2 mRNA; under 100 nM with MYB; under 100 nM in the test on Target C.
Consider `Cc1nc2c(C)c(O)c(-c3ccc4nc(N5CC[C@H](NC6CC6)C5)ccc4n3)cc2o1` [Compound 216], for which the AC50 with MYB mRNA (RT-qPCR) is under 100 nM. The IC50 in the test on MYB mRNA (setting [1]), in the test with MYB mRNA (setting [2]), with SMN2 mRNA, in the test with MYB and in the test with Target C was under 100 nM throughout.
As for `Cc1nc2c(C)c(O)c(-c3ccc4nc(N5CC[C@@H](NC6CC6)C5)ccc4n3)cc2o1` [Compound 217], the AC50 with MYB mRNA (RT-qPCR) is under 100 nM. The IC50 in the test with MYB mRNA (setting [1]), with MYB mRNA (setting [2]), in the test on SMN2 mRNA, in the test with MYB and in the test with Target C was under 100 nM throughout.
Consider `Cn1cc2cc(-c3ccc4nc(N5CCC(NC6(C)CC6)C5)ccc4n3)c(O)cc2n1` (stereo not drawn) [Compound 219], for which the AC50 in the test on MYB mRNA (RT-qPCR) was under 100 nM. In addition, the IC50 in the test with MYB mRNA (setting [1]), in the test with MYB mRNA (setting [2]), with SMN2 mRNA, with MYB and in the test on Target C was under 100 nM throughout.
On to `Cc1nc2cc(O)c(-c3ccc4nc(N5CC[C@@H](NC6CCC6)C5)ccc4n3)cc2o1` [Compound 229], for which the AC50 in the test on MYB mRNA (RT-qPCR) was under 100 nM. The IC50 in the test on MYB mRNA (setting [1]), in the test on MYB mRNA (setting [2]), in the test with SMN2 mRNA, in the test with MYB and in the test on Target C was under 100 nM throughout.
Take `Cc1nc2cc(O)c(-c3ccc4nc(N5CC[C@H](NC6CCC6)C5)ccc4n3)cc2o1` [Compound 230]: the AC50 with MYB mRNA (RT-qPCR) fell in the range of 100 to 1000 nM. Further, the IC50 with MYB mRNA (setting [1]) was 100 to 1000 nM; in the test with MYB mRNA (setting [2]), 100 to 1000 nM; in the test with SMN2 mRNA, under 100 nM; in the test with MYB it was 100 to 1000 nM; with Target C, under 100 nM.
On to `Cc1nc2cc(O)c(-c3ccc4nc(N5CCC(NC(C)C)C5)ccc4n3)cc2o1` (stereo not drawn) [Compound 231], for which the AC50 with MYB mRNA (RT-qPCR) is under 100 nM. In addition, the IC50 with MYB mRNA (setting [1]), in the test with MYB mRNA (setting [2]), with SMN2 mRNA, in the test on MYB and with Target C was under 100 nM throughout.
For `Cc1nc2c(C)c(O)c(-c3ccc4nc(N5CCC(NC6CCC6)C5)ccc4n3)cc2o1` (stereo not drawn) [Compound 235], the AC50 in the test with MYB mRNA (RT-qPCR) is under 100 nM. In addition, the IC50 with MYB mRNA (setting [1]), with MYB mRNA (setting [2]), in the test with SMN2 mRNA, in the test on MYB and in the test with Target C was under 100 nM each time.
